Data reported in patent US20090270459A1, “Flea control agent containing N-Substituted indole derivative” (priority 2001, published 2009).

Experiments:
std:ddy strain male mice = experiment: Toxicity to mouse, administration into the stomach; type: in vivo
Procedure: The compound listed in Table 1 or Fipronil was dissolved in olive oil to a predetermined concentration, and the resulting solution was directly administered into the stomachs of std:ddy strain male mice by the use of a probe. The dose was 30 mg/kg or 100 mg/kg. Whether the mice were alive or dead was observed 3 hours, 1 day, 7 days and 14 days after the administration.

adult cat fleas = experiment: Effect on cat flea (1): glass tube residue contact test, knock-down and mortality; type: in vivo, cat flea (Ctenocephalides felis); parameters: After 3 hours (KD) knocking-down rate: unit not given here
Procedure: Each compound was dissolved in acetone to a predetermined concentration and 0.1 ml of the resulting solution was dropped into the bottom of a glass tube with a diameter of 2.8 cm and a height of 12 cm and air-dried. After the air-drying, 10 adult cat fleas were placed in the glass tube and the glass tube was closed with nylon mesh and allowed to stand under conditions of a room temperature of 26° C. and a humidity of 80%. The knocked-down (KD) fleas after 3 hours and the dead and alive after 24 hours and 48 hours were counted, and the knocking-down rate and the mortality were calculated. Fipronil was used as a positive control. In a control experiment, no treatment with an agent was carried out.

[1] = tested on: cat fleas parasitic on a cat; experiment: Effect on cat flea (2): spot-on of 10% liquid drops on flea-infested cat, cumulative fall rate; type: in vivo, cat flea (Ctenocephalides felis) on cat; settings: for Cumulative fall rate (%) After 2 hours: cat with 30 cat fleas
Procedure: Fleas that had fallen from the cat body were counted at intervals of 2 hours until 8 hours after the dropping of the solution, and the cumulative fall rate was calculated. In addition, fleas that had fallen in 24 hours were counted and the cumulative fall rate after 1 day was calculated. Two days after the dropping, the living fleas on the cat body were counted by the use of a flea-removing comb.

[2] = tested on: adult cat fleas made parasitic on the cat body; experiment: Effect on cat flea (3): residual effect after spot-on of 10% liquid drops on cat, re-infestation; type: in vivo, cat flea (Ctenocephalides felis) on cat; settings: for Number of living fleas on the second day after inoculation: 30 fleas inoculated
From the text: After the dropping, 30 adult cat fleas were made parasitic on the cat body after a predetermined number of weeks. On the second day after this inoculation with the parasites, the living fleas on the cat body were counted by the use of a flea-removing comb.

cat = experiment: Toxicity to cat, spot-on dropping of liquid drops; settings: for Clinical symptom: 0.5 ml spot-on, cat, listed as No. 17
From the text: After the dropping, the clinical symptom of the cat was observed.

[3] = 30 mg/kg into the stomach, in olive oil, male mice
[4] = 1 mg/tube, 10 adult cat fleas, 26° C., humidity 80%

Structure (SMILES)	Cumulative mortality After 1 day (std:ddy strain male mice; 30 mg/kg)	Cumulative mortality After 7 days (std:ddy strain male mice; 30 mg/kg)	Cumulative mortality After 14 days (std:ddy strain male mice; 30 mg/kg)	Cumulative mortality After 3 hours (std:ddy strain male mice; [3])	Cumulative mortality After 3 hours (std:ddy strain male mice; 100 mg/kg)	Cumulative mortality After 1 day (std:ddy strain male mice; 100 mg/kg)	Cumulative mortality After 7 days (std:ddy strain male mice; 100 mg/kg)	Cumulative mortality After 14 days (std:ddy strain male mice; 100 mg/kg)	After 3 hours (KD) knocking-down rate (adult cat fleas; 0.001 mg/tube)	After 1 day (mortality) (adult cat fleas; 0.001 mg/tube) [%]	After 2 days (mortality) (adult cat fleas; 0.001 mg/tube) [%]	After 3 hours (KD) knocking-down rate (adult cat fleas; 0.01 mg/tube)	After 1 day (mortality) (adult cat fleas; 0.01 mg/tube) [%]	After 2 days (mortality) (adult cat fleas; 0.01 mg/tube) [%]	After 3 hours (KD) knocking-down rate (adult cat fleas; 0.1 mg/tube)	After 1 day (mortality) (adult cat fleas; 0.1 mg/tube) [%]	After 2 days (mortality) (adult cat fleas; 0.1 mg/tube) [%]	After 1 day (mortality) (adult cat fleas; 1 mg/tube) [%]	After 2 days (mortality) (adult cat fleas; 1 mg/tube) [%]	After 3 hours (KD) knocking-down rate (adult cat fleas; [4])	other results
Cc1c(SC(F)(Cl)Cl)c2ccccc2n1-c1ncc(C(F)(F)F)cc1Cl [Compound 14, 1-(3-chloro-5-trifluoromethylpyridin-2-yl)-3-(dichlorofluoromethylthio)-2-methylindole]	0/5	0/5	0/5	0/5	0/5	0/5	0/5	0/5	0	20	30	0	50	100	0	100	100	100	100	0	–
FC(Cl)(Cl)Sc1cn(-c2ncc(C(F)(F)F)cc2Cl)c2ccccc12 [Compound 1, 1-(3-chloro-5-trifluoromethylpyridin-2-yl)-3-(dichlorofluoromethyl-thio)indole]	–	–	–	–	–	–	–	–	0	10	40	0	70	100	0	100	100	100	100	80	–
FC(Cl)(Cl)Sc1cn(-c2c(Cl)cc(C(F)(F)F)cc2Cl)c2ccc(Cl)cc12 [Compound 19]	–	–	–	–	–	–	–	–	–	–	–	0	30	90	0	60	100	100	100	0	–
FC(Cl)(Cl)Sc1cn(-c2c(Cl)cc(C(F)(F)F)cc2Cl)c2ccccc12 [Compound 17, 1-(2,6-dichloro-4-trifluoromethylphenyl)-3-(dichlorofluoromethylthio)indole]	0/5	0/5	0/5	0/5	0/5	0/5	0/5	0/5	0	10	40	0	70	100	0	100	100	100	100	50	Fate of the fleas that had fallen from the cat body ([1]; 0.5 ml of 10% solution spot-on): died within several hours; Cumulative fall rate (%) After 4 hours ([1]; 0.5 ml of 10% solution spot-on): 15%; Cumulative fall rate (%) After 6 hours ([1]; 0.5 ml of 10% solution spot-on): 37%; Cumulative fall rate (%) After 8 hours ([1]; 0.5 ml of 10% solution spot-on): 47%; Cumulative fall rate (%) After 24 hours ([1]; 0.5 ml of 10% solution spot-on): 100%; Cumulative fall rate (%) After 2 hours ([1]; 0.5 ml of 10% solution spot-on): 0%; Duration of the aftereffect ([2]; 0.5 ml of 10% solution spot-on, cat): about 6 weeks; Number of living fleas on the second day after inoculation ([2]; 1 week after administration, 0.5 ml of 10% solution): 0; Number of living fleas on the second day after inoculation ([2]; 2 weeks after administration): 0; Number of living fleas on the second day after inoculation ([2]; 4 weeks after administration): 0; Number of living fleas on the second day after inoculation ([2]; 6 weeks after administration): 6; Number of living fleas on the second day after inoculation ([2]; 6 weeks after administration, listed as No. 17): six; Number of living fleas on the second day after inoculation ([2]; 8 weeks after administration): 13; Number of living fleas on the second day after inoculation ([2]; 8 weeks after administration, listed as No. 17): thirteen; Killing of the fleas until 4 weeks after the dropping ([2]; until 4 weeks after the dropping): completely killed the fleas; Toxicity to cat (cat; 10, 20 or 30% liquid drops spot-on): only low toxicity; Clinical symptom (cat; dropping concentration 10%): no abnormal sign; Clinical symptom (cat; dropping concentration 20%): no abnormal sign; Clinical symptom (cat; dropping concentration 30%): no abnormal sign
Fc1ccc2c(c1)c(SC(F)(Cl)Cl)cn2-c1ncc(C(F)(F)F)cc1Cl [Compound 2, 1-(3-chloro-5-trifluoromethylpyridin-2-yl)-3-(dichlorofluoromethylthio)-5-fluoroindole]	–	–	–	–	–	–	–	–	0	0	0	0	10	50	0	100	100	100	100	0	–
O=S(=O)(c1cn(-c2c(Cl)cc(C(F)(F)F)cc2Cl)c2ccccc12)C(F)(Cl)Cl [Compound 32]	–	–	–	–	–	–	–	–	0	0	0	0	0	20	0	30	100	100	100	0	–
FC(F)(F)Sc1cn(-c2c(Cl)cc(C(F)(F)F)cc2Cl)c2ccccc12 [Compound 25, 1-(2,6-dichloro-4-trifluoromethylphenyl)-3-(trifluoromethylthio)indole]	0/5	0/5	0/5	0/5	0/5	0/5	0/5	0/5	0	0	30	0	70	100	10	100	100	90	100	100	–
FC(Cl)(Cl)Sc1cn(-c2ncc(C(F)(F)F)cc2Cl)c2ccc(Cl)cc12 [Compound 3]	–	–	–	–	–	–	–	–	0	20	20	0	10	20	0	40	70	50	90	0	–
N#Cc1nn(-c2c(Cl)cc(C(F)(F)F)cc2Cl)c(N)c1[S+]([O-])C(F)(F)F (stereo not drawn) [Fipronil, 5-amino-1-(2,6-dichloro-4-(trifluoromethyl)phenyl)-4-((trifluoromethyl)sulfinyl)-1H-pyrazole-3-carbonitrile, reference compound]	1/5	1/5	1/5	0/5	1/5	5/5	5/5	5/5	0	20	20	0	20	90	0	100	100	100	100	0	Cumulative fall rate (%) After 4 hours ([1]; 0.5 ml of 10% solution spot-on): 3%; Cumulative fall rate (%) After 6 hours ([1]; 0.5 ml of 10% solution spot-on): 20%; Cumulative fall rate (%) After 8 hours ([1]; 0.5 ml of 10% solution spot-on): 27%; Cumulative fall rate (%) After 24 hours ([1]; 0.5 ml of 10% solution spot-on): 90%; Dead fleas found on the body of the cat ([1]; 24 hours after the dropping, 0.5 ml of 10% solution): three; Cumulative fall rate (%) After 2 hours ([1]; 0.5 ml of 10% solution spot-on): 0%
